Experimental data reported in patent publication US11407748B2, “Substituted pyrido[1,2-a]pyrimidines and pyrazino[1,2-a]pyrimidines for enhancing AMPA receptor function” (Takeda Pharmaceutical Company Limited, priority 2017, dated 2022).

Target: T1, hGluR1 flip (Homo sapiens, UniProt P42261)
T1 construct: expressed in transfected cells; host or cells: CHO-K1
Test: AMPA receptor function-enhancing activity using calcium influx as index
Format: cell-based
Conditions: test compound 30 μM with 3 mM glutamic acid; CHO-K1/GluR1 flip/stargazin-expressing cells; 100% = 3 mM glutamic acid + 300 μM cyclothiazide, 0% = 3 mM glutamic acid alone
From the text: Experimental Example 1 Measurement Method of AMPA Receptor Function-Enhancing Activity of Compound Using Calcium Influx as Index
(1) Construction of Expression Gene
Human GluR^1 flip cDNA was amplified by PCR method using forward primer […] (SEQ ID NO: 1) and reverse primer […] (SEQ ID NO: 2) artificially synthesized using human brain-derived cDNA (BD Bioscience) as a template. The amplified product was digested with restriction enzymes EcoRI, NotI (TAKARA SHUZO CO. LTD.) and incorporated into the same site of pcDNA3.1 (+) (Invitrogen) to construct pcDNA3.1(+)/human GluR1 flip gene. Human stargazin cDNA was amplified by PCR method using forward primer […] (SEQ ID NO: 3) and reverse primer […] (SEQ ID NO: 4) artificially synthesized using human hippocampus cDNA as a template. The amplified product was digested with restriction enzymes XhoI, BamHI (TAKARA SHUZO CO. LTD.) and incorporated into the same site of pcDNA3.1(−) (Invitrogen) to construct pcDNA3.1 Zeo(−)/human stargazing gene.
(2) Construction of GluR1 Flip/Stargazin Expressing Cell
CHO-K1 cells passaged in a culture medium (Ham's F12 medium (Invitrogen) added with 10% inactivated fetal bovine serum (Morgate) and penicillin, streptomycin (Invitrogen)) were detached using 0.05% trypsin and 0.53 mM EDTA (Invitrogen) diluted with D-PBS(−). The detached cells were suspended in a culture medium, and recovered by centrifugation at 1,000 rpm. The recovered cells were re-suspended in D-PBS(−) and added into 0.4 cm electroporation cuvette (BioRad). pcDNA3.1(+)/human GluR1 flip gene (5 μg) and pcDNA3.1 Zeo(−)/human stargazin gene (15 μg) were added, and introduced into CHO-K1 cells under the conditions of 950 μFd, […] and using Gene Pulser II (BioRad). The introduced cells were cultured overnight in a culture medium. The next day, using a selection medium (culture medium added with zeocin (Invitrogen) at 250 μg/mL), the cells were plated in a 96 well plate at 250 cells/well. The clones showing drug resistance were selected, and GluR1 flip/stargazin expression clones were selected by an assay method shown below using calcium influx as an index.
(3) Measurement Method of AMPA Receptor Function-Enhancing Activity of Compound, Using Calcium Influx as an Index
CHO-K1/GluR1 flip/stargazin-expressing cells were plated on a 384 well black bottom transparent plate, and cultured for 2 days in a CO2 incubator (SANYO ELECTRIC Co. Ltd.) at 37° C. The medium of the cell plate was removed. A calcium indicator (Calcium5 Assay Kit, Molecular Devices) was diluted with an assay buffer (HESS (Thermo Fisher Scientific), 0.1% BSA (Merck Millipoer) and 10 mM HEPES (Thermo Fisher Scientific)), and 1.25 mM probenecid (Dojindo Laboratories) was added thereto. The mixture prepared above was added at 30 μL/well (100 μL/well in case of 96 wells) to the well, and the well was left standing in 37° C., CO2 incubator for 1 hr. The cell plate was set in CellLux (PerkinElmer), a mixture (15 μL) (50 μL/well in case of 96 wells) of 9 mM glutamic acid (final concentration 3 mM) diluted with an assay buffer and a test compound (test compound concentration 30 μM) was added thereto, and variation in the amount of fluorescence was measured for 3 min. The variation of fluorescence level of a well added with final concentration 3 mM of glutamic acid and 300 μM cyclothiazide (TOCRIS) was defined as 100%, the variation of fluorescence level of a well added with final concentration 3 mM of glutamic acid alone was defined as 0%, and the activity of the compound was calculated by the following formula. activity (%)=(X−C)/(T−C)×100 • T: variation of fluorescence level of well added with final concentration 3 mM of glutamic acid and 300 μM cyclothiazide • C: variation of fluorescence level of well added with final concentration 3 mM of glutamic acid alone • X: variation of fluorescence level of well added with test compound

T1 sequence (P42261 19-906 isoform P42261-2 limits assumed): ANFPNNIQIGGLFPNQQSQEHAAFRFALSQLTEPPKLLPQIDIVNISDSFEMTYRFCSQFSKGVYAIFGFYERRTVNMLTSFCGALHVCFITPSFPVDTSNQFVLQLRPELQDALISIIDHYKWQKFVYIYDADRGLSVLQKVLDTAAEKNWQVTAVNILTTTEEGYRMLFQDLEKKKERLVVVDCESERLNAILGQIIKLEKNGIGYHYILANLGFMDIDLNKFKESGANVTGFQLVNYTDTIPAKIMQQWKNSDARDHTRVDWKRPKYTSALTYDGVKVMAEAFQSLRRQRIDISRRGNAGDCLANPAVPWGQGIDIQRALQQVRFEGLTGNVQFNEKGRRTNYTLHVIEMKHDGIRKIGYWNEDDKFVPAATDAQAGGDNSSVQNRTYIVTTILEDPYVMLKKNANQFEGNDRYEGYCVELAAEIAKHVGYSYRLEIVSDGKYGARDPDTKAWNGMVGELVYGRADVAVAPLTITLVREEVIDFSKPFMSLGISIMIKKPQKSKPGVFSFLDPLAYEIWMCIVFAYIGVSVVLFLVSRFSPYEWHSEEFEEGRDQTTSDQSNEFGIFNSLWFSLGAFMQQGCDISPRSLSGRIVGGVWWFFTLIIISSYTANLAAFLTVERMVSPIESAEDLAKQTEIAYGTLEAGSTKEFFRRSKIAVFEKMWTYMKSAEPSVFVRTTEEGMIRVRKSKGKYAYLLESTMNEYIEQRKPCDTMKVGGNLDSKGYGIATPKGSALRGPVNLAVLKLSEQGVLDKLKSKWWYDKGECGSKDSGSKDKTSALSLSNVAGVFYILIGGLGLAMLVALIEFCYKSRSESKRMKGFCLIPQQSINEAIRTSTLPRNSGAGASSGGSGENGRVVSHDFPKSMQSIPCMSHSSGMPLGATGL
T1 sequence (Q9Y698 whole entry partner): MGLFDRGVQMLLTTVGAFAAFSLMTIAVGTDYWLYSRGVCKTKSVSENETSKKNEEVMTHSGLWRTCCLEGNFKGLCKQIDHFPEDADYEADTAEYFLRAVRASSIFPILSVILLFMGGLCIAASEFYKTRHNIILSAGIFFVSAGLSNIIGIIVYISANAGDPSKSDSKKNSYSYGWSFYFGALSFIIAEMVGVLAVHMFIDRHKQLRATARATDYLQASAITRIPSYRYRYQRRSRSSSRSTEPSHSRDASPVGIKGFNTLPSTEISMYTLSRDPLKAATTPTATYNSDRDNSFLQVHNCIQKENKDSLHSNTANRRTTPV

SMILES	activation at 30 µM [%]	hGluR1 flip/30 μM (%)
O=C(c1ccc(-c2cccn3c(=O)c(Br)c(C(F)(F)F)nc23)cc1)N1CCC1 [Example 61, 9-(4-(azetidin-1-ylcarbonyl)phenyl)-3-bromo-2-(trifluoromethyl)-4H-pyrido[1,2-a]pyrimidin-4-one]	77.1	–
C[C@H]1CN(C(=O)c2ccc(-c3cccn4c(=O)c(Br)c(C(F)(F)F)nc34)cc2F)CCO1 [Example 73, 3-bromo-9-(3-fluoro-4-(((2S)-2-methylmorpholin-4-yl)carbonyl)phenyl)-2-(trifluoromethyl)-4H-pyrido[1,2-a]pyrimidin-4-one]	87.9	–
CCC1(O)CCN(C(=O)c2ccc(-c3cccn4c(=O)cc(C(F)(F)F)nc34)cc2)CC1 [Example 8, 9-(4-((4-ethyl-4-hydroxypiperidin-1-yl)carbonyl)phenyl)-2-(trifluoromethyl)-4H-pyrido[1,2-a]pyrimidin-4-one]	79.6	–
O=C(c1ccc(-c2cccn3c(=O)cc(C(F)(F)F)nc23)cc1F)N1CCOCC1 [Example 44, 9-(3-fluoro-4-(morpholin-4-ylcarbonyl)phenyl)-2-(trifluoromethyl)-4H-pyrido[1,2-a]pyrimidin-4-one]	73.8	–
O=C(c1ccc(-c2cccn3c(=O)c(Br)c(C(F)(F)F)nc23)cc1)N1CCCC1 [Example 62, 3-bromo-9-(4-(pyrrolidin-1-ylcarbonyl)phenyl)-2-(trifluoromethyl)-4H-pyrido[1,2-a]pyrimidin-4-one]	76.9	–
Cc1c(C(F)(F)F)nc2c(-c3ccc(C(=O)N4CCOC(C(F)F)C4)cc3)cccn2c1=O (stereo not shown) [Example 107, 9-(4-((2-(difluoromethyl)morpholin-4-yl)carbonyl)phenyl)-3-methyl-2-(trifluoromethyl)-4H-pyrido[1,2-a]pyrimidin-4-one]	–	86
CO[C@@H]1CCN(C(=O)c2ccc(-c3cccn4c(=O)c(C)c(C(F)(F)F)nc34)cc2F)C1 [Example 90, 9-(3-fluoro-4-(((3R)-3-methoxypyrrolidin-1-yl)carbonyl)phenyl)-3-methyl-2-(trifluoromethyl)-4H-pyrido[1,2-a]pyrimidin-4-one]	89.3	–
Cc1c(C(F)(F)F)nc2c(-c3ccc(C(=O)N4CC(F)(F)C4)c(F)c3)cccn2c1=O [Example 129, 9-(4-((3,3-difluoroazetidin-1-yl)carbonyl)-3-fluorophenyl)-3-methyl-2-(trifluoromethyl)-4H-pyrido[1,2-a]pyrimidin-4-one]	80.4	–
O=C(c1ccc(-c2cccn3c(=O)cc(C(F)(F)F)nc23)cc1)N1CCCC(F)(F)C1 [Example 3, 9-(4-((3,3-difluoropiperidin-1-yl)carbonyl)phenyl)-2-(trifluoromethyl)-4H-pyrido[1,2-a]pyrimidin-4-one]	74.8	–
O=C(c1ccc(-c2cccn3c(=O)cc(C(F)(F)F)nc23)cc1)N1CCCC(O)(C(F)(F)F)C1 (stereo not shown) [Example 36, 9-(4-((3-hydroxy-3-(trifluoromethyl)piperidin-1-yl)carbonyl)phenyl)-2-(trifluoromethyl)-4H-pyrido[1,2-a]pyrimidin-4-one]	101	–
O=C(c1ccc(-c2cccn3c(=O)c(Br)c(C(F)(F)F)nc23)cc1)N1CCOC2CC21 (stereo not shown) [Example 128, 3-bromo-9-(4-(2-oxa-5 azabicyclo[4.1.0]hept-5-ylcarbonyl)phenyl)-2-(trifluoromethyl)-4H-pyrido[1,2-a]pyrimidin-4-one]	–	70.9
Cc1c(C(F)(F)F)nc2c(-c3ccc(C(=O)NC4CCOCC4)cc3)cccn2c1=O [Example 125, 4-(3-methyl-4-oxo-2-(trifluoromethyl)-4H-pyrido[1,2-a]pyrimidin-9-yl)-N-(tetrahydro-2H-pyran-4-yl)benzamide]	86.7	–
CC1(O)CCN(C(=O)c2ccc(-c3cccn4c(=O)cc(C(F)(F)F)nc34)cc2)CC1 [Example 7, 9-(4-((4-hydroxy-4-methylpiperidin-1-yl)carbonyl)phenyl)-2-(trifluoromethyl)-4H-pyrido[1,2-a]pyrimidin-4-one]	94	–
